Where two headings read alike, the source gives them in different places.
Experiments:
[1] = target: T1, GST-RIPK2 fusion protein (human RIPK2, amino acids 1-310) (Homo sapiens, UniProt O43353); experiment: RIPK2 binding competition assay (TR-FRET, Tracer 199 displacement)
T1 construct: made in house; host or cells: baculovirus infected Sf9 cells
Method in brief: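 IC50 derived from the TR-FRET emission ratio (665/620 nm, 337 nm excitation), normalized with no-inhibitor and no-enzyme controls. Incubation 45 min at 22 °C, pH 7.5 Tris buffer, with final 10 nM tracer, 1 nM Sf9-expressed GST-RIPK2 fragment (aa 1-310) and 0.5 nM Tb-labelled anti-GST.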

[2] = target: T2, binding of His-XIAP(BIR2)-avi fusion protein to GST-RIPK2 fusion protein (RIPK2/XIAP) (Homo sapiens, UniProt O43353); experiment: RIPK2-XIAP binding competition PPI assay (TR-FRET); conditions: for Emax: read-out: PPI Amax bin
T2 construct: made in house; host or cells: baculovirus infected Sf9 cells
Method in brief: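 Compounds (in DMSO, 100-fold stock) incubated 120 min at 23 °C with 1 nM GST-RIPK2 (aa 1-310) and 25 nM His-XIAP(BIR2 aa 152-231)-avi, plus anti-His-XL665 and anti-GST-Tb, in pH 7.5 Tris buffer. Read-out: 665/520 nm emission ratio. Normalized to no-inhibitor (0%) and 50 nM GSK583 (−100%); Amax binned A–D.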

[3] = system: NF-κB pathway (SEAP) in THP1-Dual cells; experiment: THP-1 Dual cell SEAP assay (L18-MDP stimulated); assay type: cell-based; conditions: Homo sapiens, THP1-Dual, read-out: NF-κB THP1 IC50 bin
Method in brief: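 IC50 values derive from non-linear regression of % inhibition, calculated against DMSO/L18-MDP-treated wells after media-only subtraction. NF-κB SEAP activity was read at OD 620-655 nm (QUANTI-Blue, 2 h, 37 °C) from supernatants of THP1-Dual cells. Cells had been compound-treated 30 min before overnight (20-24 h) stimulation with 10 ng/mL final L18-MDP.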

[4] = 10 nM Tracer 199, 1 nM GST-RIPK2, read-out: RIPK2 IC50
[5] = RIPK2/XIAP binding competition PPI assay, Amax
[6] = RIPK2/XIAP binding competition PPI assay, read-out: PPI IC50 bin

T1 sequence (O43353 1-310): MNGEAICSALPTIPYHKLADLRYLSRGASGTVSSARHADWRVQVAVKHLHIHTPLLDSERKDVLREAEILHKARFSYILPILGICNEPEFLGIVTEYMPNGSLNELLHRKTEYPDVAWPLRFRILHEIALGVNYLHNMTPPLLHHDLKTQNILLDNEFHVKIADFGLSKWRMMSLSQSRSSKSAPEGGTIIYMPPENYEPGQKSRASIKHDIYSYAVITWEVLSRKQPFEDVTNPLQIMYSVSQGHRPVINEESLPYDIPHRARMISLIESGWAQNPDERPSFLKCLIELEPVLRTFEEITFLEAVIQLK
T2 sequence (O43353 1-310 limits assumed): as the sequence (O43353 1-310) above

| SMILES | IC50 [1, 4] [nM] | Emax [2, 5] [%] | IC50 [2, 6] [nM] | IC50 [3] [nM] | IC50 ([1]; RIPK2 IC50 (nM), 10 nM Tracer 199, 1 nM GST-RIPK2) [nM] | IC50 ([2]; PPI IC50 bin, RIPK2/XIAP binding competition PPI assay) [nM] | Emax [2] [%] |
| --- | --- | --- | --- | --- | --- | --- | --- |
| COc1cc2ncc(-c3cc(F)c(N)nc3F)n2cc1S(=O)(=O)C1(C)CCN(C(=O)OC(C)(C)C)CC1 [Example 70, tert-butyl 4-((3-(6-amino-2,5-difluoropyridin-3-yl)-7-methoxyimidazo[1,2-a]pyridin-6-yl)sulfonyl)-4-methylpiperidine-1-carboxylate] | > 20 | > 80 | > 20 | > 1000 |  |  |  |
| COc1cc2ncc(-c3cc(F)c4nc(C)cn4c3)n2cc1S(=O)(=O)C(C)(C)C [Example 109, 6-(tert-butylsulfonyl)-8′-fluoro-7-methoxy-2′-methyl-3,6′-biimidazo[1,2-a]pyridine] | > 20 | < 30 | > 20 | > 1000 |  |  |  |
| C[C@@H](O)COc1cc2ncc(-c3cc(F)c(N)nc3F)n2cc1S(=O)(=O)C(C)(C)C [Example 171, (R)-1-((3-(6-amino-2,5-difluoropyridin-3-yl)-6-(tert-butylsulfonyl)imidazo[1,2-a]pyridin-7-yl)oxy)propan-2-ol] | 2.5 to 20 | > 80 | 2.5 to 20 | 50 to 250 |  |  |  |
| COc1cc2ncc(-c3cc(F)c(N)nc3F)n2cc1S(=O)(=O)C(C)(C)CN1CCN(C)CC1 [Example 166, 3,6-difluoro-5-(7-methoxy-6-((2-methyl-1-(4-methylpiperazin-1-yl)propan-2-yl)sulfonyl)imidazo[1,2-a]pyridin-3-yl)pyridin-2-amine] |  |  |  | > 1000 | 2.5 to 20 | 2.5 to 20 | > 80 |
| Cn1cc(-c2cc3ncc(-c4cc(F)c(N)nc4F)n3cc2S(=O)(=O)C(C)(C)C)cn1 [Example 22, 5-(6-(tert-butylsulfonyl)-7-(1-methyl-1H-pyrazol-4-yl)imidazo[1,2-a]pyridin-3-yl)-3,6-difluoropyridin-2-amine] | 2.5 to 20 | > 80 | 2.5 to 20 | 250 to 1000 |  |  |  |
| COCC(C)(C)S(=O)(=O)c1cn2c(-c3cc(F)c(N)nc3F)cnc2cc1OC [Example 167, 3,6-difluoro-5-(7-methoxy-6-((1-methoxy-2-methylpropan-2-yl)sulfonyl)imidazo[1,2-a]pyridin-3-yl)pyridin-2-amine] | > 20 | > 80 | > 20 | > 1000 |  |  |  |
| Cn1cc(COc2cc3ncc(-c4cc(F)c(N)nc4F)n3cc2S(=O)(=O)C(C)(C)C)cn1 [Example 30, 5-(6-(tert-butylsulfonyl)-7-((1-methyl-1H-pyrazol-4-yl)methoxy)imidazo[1,2-a]pyridin-3-yl)-3,6-difluoropyridin-2-amine] | 2.5 to 20 | > 80 | 2.5 to 20 | 50 to 250 |  |  |  |
| CCCS(=O)(=O)Nc1cc(-c2cnc3cc(OC)c(S(=O)(=O)C(C)(C)CO)cn23)cc(OC)c1OC [Example 59, N-(5-(6-((1-hydroxy-2-methylpropan-2-yl)sulfonyl)-7-methoxyimidazo[1,2-a]pyridin-3-yl)-2,3-dimethoxyphenyl)propane-1-sulfonamide] | < 1 | > 80 | < 1 | < 50 |  |  |  |
| COc1cc2ncc(-c3ccc(N)nc3F)n2cc1S(=O)(=O)CCCO [Example 61, 3-((3-(6-amino-2-fluoropyridin-3-yl)-7-methoxyimidazo[1,2-a]pyridin-6-yl)sulfonyl)propan-1-ol] | > 20 | > 80 | > 20 | > 1000 |  |  |  |
| CC(C)(C)S(=O)(=O)c1cn2c(-c3ccc(N)nc3F)cnc2cc1OCCO [Example 249, 2-((3-(6-amino-2-fluoropyridin-3-yl)-6-(tert-butylsulfonyl)imidazo [1,2-a]pyridin-7-yl)oxy)ethan-1-ol] | > 20 | > 80 | > 20 | > 1000 |  |  |  |
| COC1(COc2cc3ncc(-c4cc(F)c(N)nc4F)n3cc2S(=O)(=O)C(C)(C)C)COC1 [Example 35, 5-(6-(tert-butylsulfonyl)-7-((3-methoxyoxetan-3-yl)methoxy)imidazo[1,2-a]pyridin-3-yl)-3,6-difluoropyridin-2-amine] | 2.5 to 20 | > 80 | 2.5 to 20 | 250 to 1000 |  |  |  |
| COc1c(F)cc(-c2cnc3cc(OC[C@H](C)CO)c(S(=O)(=O)C(C)(C)C)cn23)cc1NS(C)(=O)=O [Example 183, (R)-N-(5-(6-(tert-butylsulfonyl)-7-(3-hydroxy-2-methylpropoxy)imidazo[1,2-a]pyridin-3-yl)-3-fluoro-2-methoxyphenyl)methanesulfonamide] | < 1 | 55 to 80 | < 1 | < 50 |  |  |  |
| COc1cc2ncc(-c3cc(F)c(OC)c4[nH]cnc34)n2cc1S(=O)(=O)C(C)(C)C [Example 117, 4-(6-(tert-butylsulfonyl)-7-methoxyimidazo[1,2-a]pyridin-3-yl)-6-fluoro-7-methoxy-1H-benzo[d]imidazole] | 2.5 to 20 | 30 to 55 | 2.5 to 20 | 250 to 1000 |  |  |  |
| C[C@@H](O)COc1cn2ncc(-c3cc(F)c(N)nc3F)c2cc1S(=O)(=O)C(C)(C)C [Example 259, (R)-1-((3-(6-amino-2,5-difluoropyridin-3-yl)-5-(tert-butylsulfonyl)pyrazolo [1,5-a]pyridin-6-yl)oxy)propan-2-ol] | 2.5 to 20 | > 80 | 1 to 2.5 | 50 to 250 |  |  |  |
| C[C@H](O)COc1cc2ncc(-c3cc(Cl)c(N)nc3F)n2cc1S(=O)(=O)C(C)(C)C [Example 169, (S)-1-((3-(6-amino-5-chloro-2-fluoropyridin-3-yl)-6-(tert-butylsulfonyl)imidazo[1,2-a]pyridin-7-yl)oxy)propan-2-ol] | 1 to 2.5 | > 80 | 1 to 2.5 | 50 to 250 |  |  |  |
| CC(C)(C)S(=O)(=O)c1cn2c(-c3cnc4[nH]ccc4n3)cnc2cc1OCCO [Example 277, 2-((6-(tert-butylsulfonyl)-3-(5H-pyrrolo[2,3-b]pyrazin-2-yl)imidazo[1,2-a]pyridin-7-yl)oxy)ethan-1-ol] | 2.5 to 20 | < 30 | > 20 | 250 to 1000 |  |  |  |
| CN1CCN(CCOc2cc3ncc(-c4cc(F)c(N)nc4F)n3cc2S(=O)(=O)C(C)(C)C)CC1 [Example 19, 5-(6-(tert-butylsulfonyl)-7-(2-(4-methylpiperazin-1-yl)ethoxy)imidazo[1,2-a]pyridin-3-yl)-3,6-difluoropyridin-2-amine] | 2.5 to 20 | > 80 | 2.5 to 20 | 250 to 1000 |  |  |  |
| CCC(CO)COc1cc2ncc(-c3cc(F)c(N)nc3F)n2cc1S(=O)(=O)C(C)(C)C (stereo not shown) [Example 48, 2-(((3-(6-amino-2,5-difluoropyridin-3-yl)-6-(tert-butylsulfonyl)imidazo[1,2-a]pyridin-7-yl)oxy)methyl)butan-1-ol] | 1 to 2.5 | > 80 | 2.5 to 20 | 50 to 250 |  |  |  |
| CCS(=O)(=O)Nc1cc(-c2cnn3cc(OC)c(N4C(=O)OCC4(C)C)nc23)cc(F)c1OC [Example 131, N-(5-(5-(4,4-dimethyl-2-oxooxazolidin-3-yl)-6-methoxypyrazolo[1,5-a]pyrimidin-3-yl)-3-fluoro-2-methoxyphenyl)ethanesulfonamide] | 2.5 to 20 | > 80 | 2.5 to 20 | 250 to 1000 |  |  |  |
| COc1cc2ncc(-c3cc(F)c(N)nc3F)n2cc1S(=O)(=O)C1(C)CCN(C2COC2)CC1 [Example 124, 3,6-difluoro-5-(7-methoxy-6-((4-methyl-1-(oxetan-3-yl)piperidin-4-yl)sulfonyl)imidazo[1,2-a]pyridin-3-yl)pyridin-2-amine] | 2.5 to 20 | > 80 | > 20 | > 1000 |  |  |  |
| CCS(=O)(=O)c1cn2c(-c3cc(F)c(OC)c(NS(=O)(=O)c4cnn(C)c4)c3)cnc2cc1OC [Example 242, N-(5-(6-(ethylsulfonyl)-7-methoxyimidazo[1,2-a]pyridin-3-yl)-3-fluoro-2-methoxyphenyl)-1-methyl-1H-pyrazole-4-sulfonamide] | < 1 | > 80 | < 1 | 50 to 250 |  |  |  |
| C[C@@H](O)COc1cc2ncc(-c3cc(Cl)c(N)nc3F)n2cc1S(=O)(=O)C(C)(C)C [Example 212, (R)-1-((3-(6-amino-5-chloro-2-fluoropyridin-3-yl)-6-(tert-butylsulfonyl)imidazo [1,2-a]pyridin-7-yl)oxy)propan-2-ol] | 1 to 2.5 | > 80 | 1 to 2.5 | 50 to 250 |  |  |  |
